According to patent US20250313900A1, “COMPOSITIONS AND THERAPEUTIC AGENTS FOR MODULATING INFLAMMATORY RESPONSES ON BOTH TUMOR AND IMMUNE CELLS” (THE METHODIST HOSPITAL, priority 2022, published 2025):

T1: Tumor necrosis factor receptor-associated factor-6 (TRAF6) (in HCC827-CT cells) (human, UniProt Q9Y4K3 1-522)
T1 sequence (looked up): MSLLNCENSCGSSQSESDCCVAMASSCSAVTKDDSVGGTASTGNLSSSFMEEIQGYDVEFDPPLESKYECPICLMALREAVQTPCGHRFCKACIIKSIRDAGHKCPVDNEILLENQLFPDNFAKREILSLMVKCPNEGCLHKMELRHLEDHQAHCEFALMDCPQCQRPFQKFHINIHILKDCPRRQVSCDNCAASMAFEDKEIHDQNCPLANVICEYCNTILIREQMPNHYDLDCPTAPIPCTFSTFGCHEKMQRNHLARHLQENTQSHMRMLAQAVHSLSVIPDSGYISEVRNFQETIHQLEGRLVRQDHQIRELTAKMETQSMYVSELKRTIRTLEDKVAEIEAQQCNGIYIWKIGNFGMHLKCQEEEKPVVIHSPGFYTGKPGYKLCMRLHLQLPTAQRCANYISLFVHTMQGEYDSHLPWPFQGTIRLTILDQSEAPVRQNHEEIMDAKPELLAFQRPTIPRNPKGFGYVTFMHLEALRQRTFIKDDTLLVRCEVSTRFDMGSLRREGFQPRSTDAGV


What was measured:
[1] = tested on: MHC II; details: IFNγ stimulation
[2] = target: T1, Tumor necrosis factor …; assay: co-immunoprecipitation and western blot, HCC827-CT cells

Molecule | higher levels of surface MHC class II in CMTM4 KO cells [1] | binding result [2]
CCN(CC)CCCC(C)Nc1ccnc2cc(Cl)ccc12 (centres unmarked) [chloroquine] | abolished | 
CMTM6 (in HCC827-CT cells) (other, human, UniProt Q9NX76 1-183, looked up) MENGAVYSPTTEEDPGPARGPRSGLAAYFFMGRLPLLRRVLKGLQLLLSLLAFICEEVVSQCTLCGGLYFFEFVSCSAFLLSLLILIVYCTPFYERVDTTKVKSSDFYITLGTGCVFLLASIIFVSTHDRTSAEIAAIVFGFIASFMFLLDFITMLYEKRQESQLRKPENTTRAEALTEPLNA |  | no binding
